Experimental data as given in US10344060B2 (priority 2013, dated 2019).
Like-named read-outs stand apart in the source and are kept apart here.

Legend:
Assay in all cases: cell-based
Type in all cases: cell-based
[1] = target: hNav1.6 (Homo sapiens, UniProt Q9UQD0); conditions: for Nav1.6/Nav1.7 / IC50: Table 15; for Nav1.6/Nav1.7: ratio of PX tonic IC50 values; for IC50: read-out: PX hNav1.6 Tonic IC50
[2] = target: hNav1.7 (Homo sapiens, UniProt Q15858); conditions: PatchXpress, read-out: PX hNav1.7 Tonic IC50
[3] = target: hNav1.4 (Homo sapiens, UniProt P35499); conditions: Table 12; for IC50: PatchXpress, tonic block, read-out: PX hNav1.4 Tonic IC50; for Nav1.4/Nav1.7: ratio of PX tonic IC50 values
Sequence of hNav1.4 (P35499 whole entry): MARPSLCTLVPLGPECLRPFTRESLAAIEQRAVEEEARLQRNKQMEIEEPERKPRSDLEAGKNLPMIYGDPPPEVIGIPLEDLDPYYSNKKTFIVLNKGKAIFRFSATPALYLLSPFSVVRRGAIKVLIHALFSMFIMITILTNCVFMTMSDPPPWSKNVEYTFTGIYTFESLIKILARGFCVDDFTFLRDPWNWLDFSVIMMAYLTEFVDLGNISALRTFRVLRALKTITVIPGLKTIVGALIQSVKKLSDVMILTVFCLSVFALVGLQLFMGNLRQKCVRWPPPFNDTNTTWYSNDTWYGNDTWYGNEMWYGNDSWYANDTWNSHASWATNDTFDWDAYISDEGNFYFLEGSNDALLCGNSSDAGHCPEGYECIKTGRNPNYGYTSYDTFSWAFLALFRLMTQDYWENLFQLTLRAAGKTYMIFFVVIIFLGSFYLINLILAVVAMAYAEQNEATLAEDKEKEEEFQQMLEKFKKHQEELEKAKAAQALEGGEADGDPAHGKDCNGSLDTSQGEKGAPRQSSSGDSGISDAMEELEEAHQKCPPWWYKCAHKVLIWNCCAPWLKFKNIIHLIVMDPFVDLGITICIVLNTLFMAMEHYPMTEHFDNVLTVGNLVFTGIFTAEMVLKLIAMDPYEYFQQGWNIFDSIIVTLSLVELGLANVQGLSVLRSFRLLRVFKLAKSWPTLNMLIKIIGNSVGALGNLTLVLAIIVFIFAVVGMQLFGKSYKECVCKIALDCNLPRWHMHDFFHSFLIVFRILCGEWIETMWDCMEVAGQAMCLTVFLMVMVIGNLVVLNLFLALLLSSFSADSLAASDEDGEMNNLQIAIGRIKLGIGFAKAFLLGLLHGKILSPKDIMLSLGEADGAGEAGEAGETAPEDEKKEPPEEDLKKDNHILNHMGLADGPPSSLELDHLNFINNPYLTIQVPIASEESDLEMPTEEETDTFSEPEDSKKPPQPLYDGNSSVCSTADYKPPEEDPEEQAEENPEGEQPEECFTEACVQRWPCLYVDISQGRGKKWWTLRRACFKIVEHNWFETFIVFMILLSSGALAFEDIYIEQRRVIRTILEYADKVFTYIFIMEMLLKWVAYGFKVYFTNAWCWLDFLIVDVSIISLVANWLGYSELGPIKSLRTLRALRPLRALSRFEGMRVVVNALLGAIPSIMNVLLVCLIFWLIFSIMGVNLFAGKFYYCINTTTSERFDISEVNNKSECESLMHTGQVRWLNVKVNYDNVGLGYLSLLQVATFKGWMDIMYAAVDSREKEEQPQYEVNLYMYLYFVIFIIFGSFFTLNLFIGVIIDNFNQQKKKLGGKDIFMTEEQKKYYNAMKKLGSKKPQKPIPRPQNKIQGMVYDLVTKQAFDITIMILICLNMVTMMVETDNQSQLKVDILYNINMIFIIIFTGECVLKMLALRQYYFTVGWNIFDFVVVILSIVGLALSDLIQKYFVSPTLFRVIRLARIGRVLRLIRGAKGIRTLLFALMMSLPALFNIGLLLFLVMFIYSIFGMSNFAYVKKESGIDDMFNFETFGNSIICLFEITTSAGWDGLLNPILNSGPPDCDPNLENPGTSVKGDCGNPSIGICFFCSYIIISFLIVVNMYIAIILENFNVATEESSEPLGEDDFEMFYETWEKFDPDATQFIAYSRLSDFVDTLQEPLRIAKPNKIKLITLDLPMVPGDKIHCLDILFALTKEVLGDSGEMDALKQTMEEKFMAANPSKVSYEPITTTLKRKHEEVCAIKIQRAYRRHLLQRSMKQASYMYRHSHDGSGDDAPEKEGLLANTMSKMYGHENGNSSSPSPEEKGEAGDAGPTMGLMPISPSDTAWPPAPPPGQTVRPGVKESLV

Sequence of hNav1.6 (Q9UQD0 whole entry): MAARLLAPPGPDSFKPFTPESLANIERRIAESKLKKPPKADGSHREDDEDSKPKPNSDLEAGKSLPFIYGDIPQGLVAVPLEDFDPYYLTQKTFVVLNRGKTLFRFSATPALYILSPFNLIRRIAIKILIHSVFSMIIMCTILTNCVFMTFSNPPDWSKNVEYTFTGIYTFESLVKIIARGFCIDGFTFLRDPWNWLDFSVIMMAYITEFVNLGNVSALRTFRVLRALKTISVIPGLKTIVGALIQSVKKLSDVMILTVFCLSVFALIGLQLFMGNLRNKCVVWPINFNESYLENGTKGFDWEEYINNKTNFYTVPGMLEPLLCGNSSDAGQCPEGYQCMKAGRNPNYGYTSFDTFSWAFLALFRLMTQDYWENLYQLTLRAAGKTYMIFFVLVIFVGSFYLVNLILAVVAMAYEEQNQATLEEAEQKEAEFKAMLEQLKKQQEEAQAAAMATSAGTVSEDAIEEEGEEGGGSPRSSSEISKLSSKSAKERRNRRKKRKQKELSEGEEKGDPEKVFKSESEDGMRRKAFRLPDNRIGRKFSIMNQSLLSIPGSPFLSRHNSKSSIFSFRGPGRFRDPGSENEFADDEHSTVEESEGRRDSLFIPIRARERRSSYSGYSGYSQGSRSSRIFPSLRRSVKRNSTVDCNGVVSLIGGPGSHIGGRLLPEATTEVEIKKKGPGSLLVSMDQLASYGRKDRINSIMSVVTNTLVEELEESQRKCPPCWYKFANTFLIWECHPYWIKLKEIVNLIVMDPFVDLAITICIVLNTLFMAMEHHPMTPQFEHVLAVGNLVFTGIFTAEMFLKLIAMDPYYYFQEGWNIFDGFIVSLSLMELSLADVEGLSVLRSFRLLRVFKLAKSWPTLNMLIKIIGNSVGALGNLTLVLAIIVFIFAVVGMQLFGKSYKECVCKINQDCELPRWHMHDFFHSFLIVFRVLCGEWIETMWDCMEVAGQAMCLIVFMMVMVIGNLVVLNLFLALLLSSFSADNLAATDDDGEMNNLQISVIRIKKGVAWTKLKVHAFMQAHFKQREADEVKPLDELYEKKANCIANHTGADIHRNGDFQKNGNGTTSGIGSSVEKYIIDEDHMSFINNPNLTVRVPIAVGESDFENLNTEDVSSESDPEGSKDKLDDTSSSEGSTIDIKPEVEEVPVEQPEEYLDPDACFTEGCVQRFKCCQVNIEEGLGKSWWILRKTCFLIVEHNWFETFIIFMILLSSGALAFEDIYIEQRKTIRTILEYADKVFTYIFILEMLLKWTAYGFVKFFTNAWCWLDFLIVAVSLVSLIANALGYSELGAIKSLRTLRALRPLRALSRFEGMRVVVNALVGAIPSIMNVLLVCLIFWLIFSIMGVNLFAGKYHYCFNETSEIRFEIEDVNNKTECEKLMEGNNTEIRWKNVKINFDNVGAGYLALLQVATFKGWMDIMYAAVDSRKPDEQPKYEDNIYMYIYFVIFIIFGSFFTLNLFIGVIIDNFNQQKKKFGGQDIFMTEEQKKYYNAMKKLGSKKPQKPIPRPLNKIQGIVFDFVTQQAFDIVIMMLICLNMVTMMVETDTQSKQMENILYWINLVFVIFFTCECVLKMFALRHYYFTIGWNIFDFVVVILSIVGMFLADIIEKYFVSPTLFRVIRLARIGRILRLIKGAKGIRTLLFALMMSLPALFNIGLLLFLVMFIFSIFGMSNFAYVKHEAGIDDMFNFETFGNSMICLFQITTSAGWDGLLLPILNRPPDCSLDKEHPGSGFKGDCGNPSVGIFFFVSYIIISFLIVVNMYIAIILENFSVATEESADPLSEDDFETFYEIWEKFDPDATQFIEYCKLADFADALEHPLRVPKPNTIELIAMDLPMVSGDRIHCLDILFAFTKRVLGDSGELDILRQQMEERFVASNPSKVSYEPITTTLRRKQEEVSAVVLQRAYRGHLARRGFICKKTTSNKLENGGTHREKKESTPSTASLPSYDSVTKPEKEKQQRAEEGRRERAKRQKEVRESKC

| SMILES | selectivity for Nav1.7 over Nav1.6 ([1]; PatchXpress) [fold] | IC50 ([2]; tonic, Table 11) [nM] | Nav1.6/Nav1.7 [1] | IC50 [1] [nM] | IC50 ([2]; Table 12, tonic block) [nM] | IC50 [3] [nM] | Nav1.4/Nav1.7 [3] |
| --- | --- | --- | --- | --- | --- | --- | --- |
| CC[C@H](C)[C@H](NC(=O)[C@H](CCC(=O)O)NC(=O)[C@H](CCCCN)NC(=O)[C@H](CCCNC(=N)N)NC(=O)[C@@H]1CSSC[C@@H]2NC(=O)[C@H](C)NC(=O)[C@H](CCCNC(=N)N)NC(=O)[C@H](CCCCN)NC(=O)[C@H](CO)NC(=O)[C@H](CC(=O)O)NC(=O)[C@@H]3CSSC[C@H](NC(=O)[C@H](CCCNC(=N)N)NC(=O)[C@H](CC(C)C)NC(=O)CNC(=O)[C@H](CCC(=O)O)NC(=O)[C@H](CSSC[C@H](NC(=O)[C@@H](N)Cc4ccc(O)cc4)C(=O)N[C@@H](CCC(N)=O)C(=O)N[C@@H](CCCCN)C(=O)N[C@@H](Cc4c[nH]c5ccccc45)C(=O)N[C@@H](CCSC)C(=O)N[C@@H](Cc4c[nH]c5ccccc45)C(=O)N[C@@H]([C@@H](C)O)C(=O)N3)NC2=O)C(=O)N[C@@H](CCCCN)C(=O)N[C@@H](CC(C)C)C(=O)N[C@@H](Cc2c[nH]c3ccccc23)C(=O)N1)C(N)=O [SEQ ID NO: 69, [Glu28]JzTx-V(1-29)] | 437 |  |  |  |  |  |  |
| CC[C@H](C)[C@H](NC(=O)[C@@H](NC(=O)[C@H](CCCCN)NC(=O)[C@H](CCCNC(=N)N)NC(=O)[C@@H]1CSSC[C@@H]2NC(=O)[C@H](C)NC(=O)[C@H](CCCNC(=N)N)NC(=O)[C@H](CCCCN)NC(=O)[C@H](CO)NC(=O)[C@H](CC(=O)O)NC(=O)[C@@H]3CSSC[C@H](NC(=O)[C@H](CCCNC(=N)N)NC(=O)[C@H](CC(C)C)NC(=O)CNC(=O)[C@H](CCC(=O)O)NC(=O)[C@H](CSSC[C@H](NC(=O)[C@@H](N)Cc4ccc(O)cc4)C(=O)N[C@@H](CCC(N)=O)C(=O)N[C@@H](CCC(=O)O)C(=O)N[C@@H](Cc4c[nH]c5ccccc45)C(=O)N[C@@H](CCSC)C(=O)N[C@@H](Cc4c[nH]c5ccccc45)C(=O)N[C@@H]([C@@H](C)O)C(=O)N3)NC2=O)C(=O)N[C@@H](CCCCN)C(=O)N[C@@H](CC(C)C)C(=O)N[C@@H](Cc2c[nH]c3ccccc23)C(=O)N1)[C@@H](C)CC)C(N)=O [compound 51] |  | 847 | >12 | > 10000 |  |  |  |
| C#CC[C@H](NC(=O)[C@@H](N)CCC(=O)O)C(=O)N[C@@H](Cc1ccc(O)cc1)C(=O)N[C@H]1CSSC[C@@H]2NC(=O)[C@@H]3CSSC[C@@H](C(=O)N[C@@H](CCCNC(=N)N)C(=O)N[C@@H](CCCCN)C(=O)N[C@@H](CCC(=O)O)C(=O)N[C@H](C(N)=O)[C@@H](C)CC)NC(=O)[C@H](Cc4c[nH]c5ccccc45)NC(=O)[C@H](CC(C)C)NC(=O)[C@H](CCCCN)NC(=O)[C@H](CSSC[C@H](NC(=O)[C@H]([C@@H](C)O)NC(=O)[C@H](Cc4c[nH]c5ccccc45)NC(=O)[C@H](CCCC)NC(=O)[C@H](Cc4c[nH]c5ccccc45)NC(=O)[C@H](CCCCN)NC(=O)[C@H](CCC(N)=O)NC1=O)C(=O)N[C@@H](CC(=O)O)C(=O)N[C@@H](CO)C(=O)N[C@@H](CCCCN)C(=O)N[C@@H](CCCNC(=N)N)C(=O)N[C@@H](C)C(=O)N3)NC(=O)[C@H](CCCNC(=N)N)NC(=O)[C@H](CC(C)C)NC(=O)CNC(=O)[C@H](CCC(=O)O)NC2=O [compound 707] |  |  | 236 | 174 | 0.738 | 112 | 152 |
| C#CC[C@H](N)C(=O)N[C@@H](Cc1ccc(O)cc1)C(=O)N[C@H]1CSSC[C@@H]2NC(=O)[C@@H]3CSSC[C@@H](C(=O)N[C@@H](CCCNC(=N)N)C(=O)N[C@@H](CCCCN)C(=O)N[C@@H](CCC(=O)O)C(=O)N[C@H](C(N)=O)[C@@H](C)CC)NC(=O)[C@H](Cc4c[nH]c5ccccc45)NC(=O)[C@H](CC(C)C)NC(=O)[C@H](CCCCN)NC(=O)[C@H](CSSC[C@H](NC(=O)[C@H](CCC(=O)O)NC(=O)[C@H](Cc4c[nH]c5ccccc45)NC(=O)[C@H](CCCC)NC(=O)[C@H](Cc4c[nH]c5ccccc45)NC(=O)[C@H](CCCCN)NC(=O)[C@H](CCC(N)=O)NC1=O)C(=O)N[C@@H](CC(=O)O)C(=O)N[C@@H](CO)C(=O)N[C@@H](CCCCN)C(=O)N[C@@H](CCCNC(=N)N)C(=O)N[C@@H](C)C(=O)N3)NC(=O)[C@H](CCCNC(=N)N)NC(=O)[C@H](CC(C)C)NC(=O)CNC(=O)[C@H](CCC(=O)O)NC2=O [compound 712] |  |  | 395 | 6460 | 16.4 | 1580 | 97 |
| C#CC[C@H](N)C(=O)N[C@@H](Cc1ccc(O)cc1)C(=O)N[C@H]1CSSC[C@@H]2NC(=O)[C@@H]3CSSC[C@@H](C(=O)N[C@@H](CCCNC(=N)N)C(=O)N[C@@H](CCCCN)C(=O)N[C@@H](CCC(=O)O)C(=O)N[C@H](C(N)=O)[C@@H](C)CC)NC(=O)[C@H](Cc4c[nH]c5ccccc45)NC(=O)[C@H](CC(C)C)NC(=O)[C@H](CCCCN)NC(=O)[C@H](CSSC[C@H](NC(=O)[C@H]([C@@H](C)O)NC(=O)[C@H](Cc4c[nH]c5ccccc45)NC(=O)[C@H](CCCC)NC(=O)[C@H](Cc4c[nH]c5ccccc45)NC(=O)[C@H](CCCCN)NC(=O)[C@H](CCC(N)=O)NC1=O)C(=O)N[C@@H](CC(=O)O)C(=O)N[C@@H](CO)C(=O)N[C@@H](CCCCN)C(=O)N[C@@H](CCCNC(=N)N)C(=O)N[C@@H](C)C(=O)N3)NC(=O)[C@H](CCCNC(=N)N)NC(=O)[C@H](CC(C)C)NC(=O)CNC(=O)[C@H](CCCCN)NC2=O [compound 718] |  |  | 104 | 148 | 1.42 | 33.9 | 24 |
| C#CC[C@H](N)C(=O)N[C@@H](Cc1ccc(O)cc1)C(=O)N[C@H]1CSSC[C@@H]2NC(=O)[C@@H]3CSSC[C@@H](C(=O)N[C@@H](CCCNC(=N)N)C(=O)N[C@@H](CCCCN)C(=O)N[C@@H](CCC(=O)O)C(=O)N[C@H](C(N)=O)[C@@H](C)CC)NC(=O)[C@H](Cc4c[nH]c5ccccc45)NC(=O)[C@H](CC(C)C)NC(=O)[C@H](CCCCN)NC(=O)[C@H](CSSC[C@H](NC(=O)[C@H]([C@@H](C)O)NC(=O)[C@H](Cc4c[nH]c5ccccc45)NC(=O)[C@H](CCCC)NC(=O)[C@H](Cc4c[nH]c5ccccc45)NC(=O)[C@H](CCCCN)NC(=O)[C@H](CCC(N)=O)NC1=O)C(=O)N[C@@H](CC(=O)O)C(=O)N[C@@H](CO)C(=O)N[C@@H](CCCCN)C(=O)N[C@@H](CCCNC(=N)N)C(=O)N[C@@H](C)C(=O)N3)NC(=O)[C@H](CCCCN)NC(=O)[C@H](CC(C)C)NC(=O)CNC(=O)[C@H](CCC(=O)O)NC2=O [compound 721] |  |  | 471 | 245 | 0.519 | 185 | 357 |
| C#CC[C@H](N)C(=O)N[C@@H](Cc1ccc(O)cc1)C(=O)N[C@H]1CSSC[C@@H]2NC(=O)[C@@H]3CSSC[C@@H](C(=O)N[C@@H](CCCNC(=N)N)C(=O)N[C@@H](CCCCN)C(=O)N[C@@H](CCC(=O)O)C(=O)N[C@H](C(N)=O)[C@@H](C)CC)NC(=O)[C@H](Cc4c[nH]c5ccccc45)NC(=O)[C@H](CC(C)C)NC(=O)[C@H](CCC(=O)O)NC(=O)[C@H](CSSC[C@H](NC(=O)[C@H]([C@@H](C)O)NC(=O)[C@H](Cc4c[nH]c5ccccc45)NC(=O)[C@H](CCCC)NC(=O)[C@H](Cc4c[nH]c5ccccc45)NC(=O)[C@H](CCCCN)NC(=O)[C@H](CCC(N)=O)NC1=O)C(=O)N[C@@H](CC(=O)O)C(=O)N[C@@H](CO)C(=O)N[C@@H](CCCCN)C(=O)N[C@@H](CCCNC(=N)N)C(=O)N[C@@H](C)C(=O)N3)NC(=O)[C@H](CCCNC(=N)N)NC(=O)[C@H](CC(C)C)NC(=O)CNC(=O)[C@H](CCC(=O)O)NC2=O [compound 722] |  |  | >442 |  |  |  | >442 |
| C#CC[C@H](N)C(=O)N[C@@H](Cc1ccc(O)cc1)C(=O)N[C@H]1CSSC[C@@H]2NC(=O)[C@@H]3CSSC[C@@H](C(=O)N[C@@H](CCCNC(=N)N)C(=O)N[C@@H](CCCCN)C(=O)N[C@@H](CC(=O)O)C(=O)N[C@H](C(N)=O)[C@@H](C)CC)NC(=O)[C@H](Cc4c[nH]c5ccccc45)NC(=O)[C@H](CC(C)C)NC(=O)[C@H](CCCCN)NC(=O)[C@H](CSSC[C@H](NC(=O)[C@H]([C@@H](C)O)NC(=O)[C@H](Cc4c[nH]c5ccccc45)NC(=O)[C@H](CCCC)NC(=O)[C@H](Cc4c[nH]c5ccccc45)NC(=O)[C@H](CCCCN)NC(=O)[C@H](CCC(N)=O)NC1=O)C(=O)N[C@@H](CC(=O)O)C(=O)N[C@@H](CO)C(=O)N[C@@H](CCCCN)C(=O)N[C@@H](CCCNC(=N)N)C(=O)N[C@@H](C)C(=O)N3)NC(=O)[C@H](CCCNC(=N)N)NC(=O)[C@H](CC(C)C)NC(=O)CNC(=O)[C@H](CCC(=O)O)NC2=O [compound 723] |  |  | 270 | 1620 | 5.98 | 78.4 | 13 |
| C#CC[C@H](N)C(=O)N[C@@H](Cc1ccc(O)cc1)C(=O)N[C@H]1CSSC[C@@H]2NC(=O)[C@@H]3CSSC[C@@H](C(=O)N[C@@H](CCCNC(=N)N)C(=O)N[C@@H](CCCCN)C(=O)N[C@@H](CCC(=O)O)C(=O)N[C@H](C(N)=O)[C@@H](C)CC)NC(=O)[C@H](Cc4c[nH]c5ccccc45)NC(=O)[C@H](CC(C)C)NC(=O)[C@H](CCCCN)NC(=O)[C@H](CSSC[C@H](NC(=O)[C@H]([C@@H](C)O)NC(=O)[C@H](Cc4c[nH]c5ccccc45)NC(=O)[C@H](CCCC)NC(=O)[C@H](Cc4c[nH]c5ccccc45)NC(=O)[C@H](CCCCN)NC(=O)[C@H](CCC(N)=O)NC1=O)C(=O)N[C@@H](CC(=O)O)C(=O)N[C@@H](CO)C(=O)N[C@@H](CCCCN)C(=O)N[C@@H](CCCNC(=N)N)C(=O)N[C@@H](C)C(=O)N3)NC(=O)[C@H](C)NC(=O)[C@H](CC(C)C)NC(=O)CNC(=O)[C@H](CCC(=O)O)NC2=O [compound 727] |  |  | >11 | > 10000 | 905 |  |  |
